# From patent US10036047B2, “Methods for hydroxylating phenylpropanoids” (University of Georgia Research Foundation, Inc., priority 2013, dated 2018)
# Values joined by “and” are separate entries in the source; they are usually repeats but may differ in a detail not shown here. Equal entries are not always repeated. Where two headings read alike, the source gives them in different places.
# T1: HpaBC (Escherichia coli, UniProt Q57160)
# T1 sequence (Q57160 2-520): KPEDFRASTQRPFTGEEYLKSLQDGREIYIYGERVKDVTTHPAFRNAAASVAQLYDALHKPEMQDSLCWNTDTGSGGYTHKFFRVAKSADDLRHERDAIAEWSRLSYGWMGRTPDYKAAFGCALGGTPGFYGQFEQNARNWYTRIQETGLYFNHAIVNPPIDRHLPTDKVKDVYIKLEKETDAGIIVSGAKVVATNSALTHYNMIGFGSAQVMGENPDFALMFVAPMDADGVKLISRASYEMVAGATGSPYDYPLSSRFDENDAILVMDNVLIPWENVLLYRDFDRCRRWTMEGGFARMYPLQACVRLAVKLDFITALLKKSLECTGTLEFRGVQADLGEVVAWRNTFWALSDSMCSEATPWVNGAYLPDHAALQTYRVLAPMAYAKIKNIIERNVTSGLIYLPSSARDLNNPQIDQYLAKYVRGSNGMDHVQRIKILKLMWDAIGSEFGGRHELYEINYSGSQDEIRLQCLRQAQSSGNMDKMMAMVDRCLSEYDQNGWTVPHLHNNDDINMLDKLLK
# B1: HpaBC (Escherichia coli) (protein)
# chain: T1 sequence (Q57160 2-520)
# Key:
# HpaBC [1] = biological target: T1, HpaBC; assay type: biochemical; conditions: for kcat: kcat=Vmax/[E]
# Protocol: The E. coli strain was transformed with pZE-His7HpaB and pZE-His7HpaC separately. The fresh transformants were pre-inoculated in LB medium containing 100 μg/ml ampicillin and grown at 37° C. aerobically overnight. In the following day, the pre-inoculums were transferred into 50 ml of fresh LB medium at a ratio of 1:100. The cultures were cultivated at 37° C. till the OD600 values reached about 0.6 and then induced by 0.5 mM IPTG. […] The BCA kit (Pierce Chemicals) was used to estimate protein concentrations. […] The HpaBC enzyme assays were carried out according to the protocol described by Louie et al. with minor modifications (Louie et al., 2003. Biochemistry (Mosc) 42(24):7509-17). The 1 ml reaction system contains KPi Buffer (20 mM, pH=7.0), FAD (10 μM), NADH (1 mM), HpaB (0.5 μM), HpaC (0.5 μM), substrates (from 10 to 1000 μM). […] The reaction rates were calculated according to the product formation and substrate consumption, which were measured by HPLC. Apparent kinetic parameters were determined by non-linear regression of the Michaelis-Menten equation using OriginPro8™.
# We further investigated and compared the kinetic parameters of HpaBC towards its native substrate 4HPA and the 3 non-native substrates. To do these, a multi-histidine tag was fused to the N-terminus of HpaB and HpaC, which were subsequently over-expressed and purified from E. coli. The enzyme complex was reconsituted in vitro for enzyme assays (FIG. 5).
# HpaBC [2] = biological target: T2, HpaBC (Escherichia coli, UniProt Q57160); assay: Whole-cell biocatalysis with E. coli cells over-expressing HpaBC; assay type: cell-based; conditions: for whole cell bioconversion of substrate into hydroxylated product: 500 mg/L substrate, about 3.3 g/L DCW, in 3 h
# T2 construct: expressed in transfected cells; host or cells: E. coli strain harboring pZE-HpaBC
# Protocol: The E. coli strain harboring pZE-HpaBC was first cultivated in 50 ml LB liquid medium at 37° C. till OD600 values reached 0.6. Then the cells were transferred to 30° C. and induced with 0.5 mM IPTG for additional 6 hours. After that, cells were harvested, re-suspended in 15 ml M9Y medium (0D600=9.6), and incubated in a rotary shaker at 300 rpm. […] When the substrate concentrations fell below 0.5 g/L, additional 1 g/L substrates were supplemented. […] Samples were taken every few hours and analyzed by HPLC.
# Whole-cell biocatalysis is an efficient and economical way to scale up enzyme-catalyzed reactions.
# T2 sequence (Q57160 whole entry): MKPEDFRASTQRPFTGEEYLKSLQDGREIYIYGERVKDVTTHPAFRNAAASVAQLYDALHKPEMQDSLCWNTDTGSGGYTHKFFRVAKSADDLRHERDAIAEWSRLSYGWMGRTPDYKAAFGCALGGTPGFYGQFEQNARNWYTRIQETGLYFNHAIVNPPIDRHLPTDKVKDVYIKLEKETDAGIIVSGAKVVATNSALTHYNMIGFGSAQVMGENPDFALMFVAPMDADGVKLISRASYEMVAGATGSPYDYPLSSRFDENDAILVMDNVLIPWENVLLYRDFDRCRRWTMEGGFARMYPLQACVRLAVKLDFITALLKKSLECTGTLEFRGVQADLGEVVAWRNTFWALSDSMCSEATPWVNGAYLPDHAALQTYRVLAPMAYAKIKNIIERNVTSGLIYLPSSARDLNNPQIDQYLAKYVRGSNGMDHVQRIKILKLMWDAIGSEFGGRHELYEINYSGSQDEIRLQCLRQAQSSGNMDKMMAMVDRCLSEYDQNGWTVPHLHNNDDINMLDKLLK
# HpaBC [3] = biological target: T2, HpaBC; assay: HpaBC substrates screening: feeding of E. coli strain over-expressing HpaBC; assay type: cell-based; conditions: 200 mg/L substrate, additional 10 hour incubation
# Protocol: The E. coli strain harboring pZE-HpaBC was pre-inoculated into LB liquid medium containing ampicillin (100 μg/ml) and grown overnight at 37° C. Then 200 μl of the inoculum was transferred into 20 ml of fresh M9Y medium. The E. coli cells were grown at 37° C. till the OD600 values reached around 0.6 and then transferred to 30° C. and induced by 0.5 mM IPTG.
# As the initial step towards examining the activity, we constructed a high-copy number plasmid co-expressing hpaB and hpaC (pZE-HpaBC) and introduced it into E. coli. The resulting strain was cultivated and induced with IPTG for enzyme expression for 3 hours, after which 200 mg/L of substrate was added into the cultures. After additional 10 hour incubation, we analyzed the cell-free broth by HPLC. […] We further used naringenin to explore the substrate tolerance limit of HpaBC. […] The three new peaks were collected from HPLC for mass spectrum analysis.
# HpaBC [4] = biological target: T2, HpaBC; conditions: from p-coumaric acid; cited from earlier work
# [5] = substrate: Oc1ccc(/C=C/c2cc(O)cc(O)c2)cc1; assay: purified protein, by the assay type; conditions: other: apparent, HpaB 0.5 μM, HpaC 0.5 μM, pH 7.0, 30° C.
# [6] = substrate: O=c1ccc2ccc(O)cc2o1; assay: purified protein, by the assay type; conditions: other: apparent, HpaB 0.5 μM, HpaC 0.5 μM, pH 7.0, 30° C.
molecule,measurement,setting,value
"O=C(O)Cc1ccc(O)cc1 [4-HPA, 4-hydroxyphenylacetate, reference compound]",Km,"HpaBC [1]; apparent, HpaB 0.5 μM, HpaC 0.5 μM, pH 7.0, 30° C.",18.4 µM
same,kcat,"HpaBC [1]; apparent, pH 7.0, 30° C.",1.08 ± 0.015 s⁻¹
same,kcat,"HpaBC [1]; apparent, pH 7.0, 30° C., listed as 4HPA",1.08 s⁻¹
"O=C1C[C@@H](c2ccc(O)c(O)c2)Oc2cc(O)cc(O)c21 (single isomer, unassigned) [eriodictyol]",product generated,"HpaBC [2]; 150 mg/L naringenin fed, 10 h",16.7 mg/L and 58 μM
"O=c1ccc2ccc(O)cc2o1 [Umbelliferone, umbelliferone]",kcat,"HpaBC [1]; apparent, pH 7.0, 30° C.",0.0667 s⁻¹
same,whole cell bioconversion of substrate into hydroxylated product,HpaBC [2],completely converted
same,whole-cell conversion efficiency relative to resveratrol,HpaBC [2]; umbelliferone vs resveratrol,about 3 fold
same,substrate consumption in culture (HPLC),HpaBC [3],completely consumed
"O=c1ccc2cc(O)c(O)cc2o1 (single isomer, unassigned) [esculetin]",maximum product titer,"HpaBC [2]; end of 18 h, fed substrate, 1.5 mM ascorbic acid",2.7 g/L and 15.5 mM
same,highest hydroxylation rate (product formation),"HpaBC [2]; initial 2 h, 1.5 g/L initial substrate",298.1 μM/h/OD
O=C1C[C@@H](c2ccc(O)cc2)Oc2cc(O)cc(O)c21 [naringenin],activity of HpaBC towards substrate,HpaBC [1]; kinetic parameters not determined,low activity
same,substrate consumption in culture (HPLC),HpaBC [3],majority of naringenin was left unconverted
O=C(O)/C=C/c1ccc(O)c(O)c1 [caffeic acid],caffeic acid production titer,HpaBC [4],3.82 g/L and 21.2 mM
"Oc1ccc(/C=C/c2cc(O)cc(O)c2)cc1 [Resveratrol, 3,5,4′-trihydroxy-trans-stilbene]",kcat,"HpaBC [1]; apparent, pH 7.0, 30° C.",0.0933 s⁻¹
same,whole cell bioconversion of substrate into hydroxylated product,HpaBC [2],completely converted
same,substrate consumption in culture (HPLC),HpaBC [3],completely consumed
B1,Km,[5],145.1 µM
same,kcat,[5],0.0933 s⁻¹
same,kcat/Km,[5],643 M⁻¹ s⁻¹
same,Km,[6],262.2 µM
same,kcat,[6],0.0667 s⁻¹
same,kcat/Km,[6],254 M⁻¹ s⁻¹
